Source: patent US9353082B2, “Pharmaceutical compounds” (BIAL—PORTELA & CA, S.A., priority 2008, dated 2016)

Columns and labels:
[1] = molecular target: T1, FAAH (Rattus norvegicus, UniProt P97612); assay: In vitro FAAH activity in rat brain membranes, 3H-AEA substrate, % of control; format: biochemical, Wistar rats; conditions: low value = strong inhibitor; for In Vitro FAAH activity, 100 nM: 100 nM test compound; for In Vitro FAAH activity, 10 uM: 10 uM test compound
T1 construct: Frozen brains (without cerebellum) from Wistar rats were used; from tissue; host or cells: Wistar rat brain (without cerebellum), washed membrane pellets
T1 sequence (P97612 1-579): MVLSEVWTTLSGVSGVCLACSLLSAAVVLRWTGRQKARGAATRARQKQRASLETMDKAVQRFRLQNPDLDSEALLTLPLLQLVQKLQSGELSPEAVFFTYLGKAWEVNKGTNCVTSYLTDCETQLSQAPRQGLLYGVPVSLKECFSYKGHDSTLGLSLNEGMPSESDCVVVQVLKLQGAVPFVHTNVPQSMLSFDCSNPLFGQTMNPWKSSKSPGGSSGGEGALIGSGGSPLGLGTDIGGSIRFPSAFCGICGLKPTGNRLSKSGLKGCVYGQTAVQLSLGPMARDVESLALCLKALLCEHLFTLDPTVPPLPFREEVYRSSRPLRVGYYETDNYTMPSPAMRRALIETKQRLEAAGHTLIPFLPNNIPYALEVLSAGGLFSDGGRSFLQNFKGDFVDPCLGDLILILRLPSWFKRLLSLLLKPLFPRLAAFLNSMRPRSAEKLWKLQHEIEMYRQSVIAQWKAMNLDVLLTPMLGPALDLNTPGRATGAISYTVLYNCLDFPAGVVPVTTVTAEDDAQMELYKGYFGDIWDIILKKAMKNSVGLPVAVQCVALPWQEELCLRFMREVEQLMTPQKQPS
Procedure, shortened: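 Wistar rat brain membranes (5 μg protein) preincubated 15 min at 37 °C with compound at 10 μM or 0.1 μM (0.1% DMSO), then 2 μM AEA including 3H-AEA with 0.1% BSA, Tris pH 7.6, 10 min. 3H-ethanolamine counted after charcoal stop; % of no-compound control after blank subtraction.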

[2] = molecular target: T2, FAAH (Mus musculus, UniProt O08914); assay: In vivo FAAH inhibition after oral dosing, remaining activity in liver homogenate (LVh, peripheral tissue); parameters: species or system NMRI mice; conditions: liver homogenate, 3 mg/kg, 8 h
T2 construct: A fragment of liver, left lung lobe and brain without cerebellum were removed; from tissue; host or cells: male NMRI mice; brain (without cerebellum) and liver homogenates
T2 sequence (O08914 1-579): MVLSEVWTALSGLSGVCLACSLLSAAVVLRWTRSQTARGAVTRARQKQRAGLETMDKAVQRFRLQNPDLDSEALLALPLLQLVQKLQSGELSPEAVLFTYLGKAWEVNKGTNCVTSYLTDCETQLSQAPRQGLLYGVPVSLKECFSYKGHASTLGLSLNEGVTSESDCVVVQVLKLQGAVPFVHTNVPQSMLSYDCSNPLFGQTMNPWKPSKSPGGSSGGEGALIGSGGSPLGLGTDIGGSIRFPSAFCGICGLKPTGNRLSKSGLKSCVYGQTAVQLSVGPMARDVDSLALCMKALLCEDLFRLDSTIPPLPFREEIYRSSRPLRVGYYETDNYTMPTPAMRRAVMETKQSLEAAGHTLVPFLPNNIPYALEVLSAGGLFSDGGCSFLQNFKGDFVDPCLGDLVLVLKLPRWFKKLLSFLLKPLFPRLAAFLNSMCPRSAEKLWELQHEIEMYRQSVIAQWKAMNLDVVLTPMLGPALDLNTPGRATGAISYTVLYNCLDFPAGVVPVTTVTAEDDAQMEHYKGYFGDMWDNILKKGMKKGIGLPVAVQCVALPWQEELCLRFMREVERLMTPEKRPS
Procedure, shortened: (§1)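 Male NMRI mice, fasted overnight, got 30 or 3 mg/kg compound orally (0.5% CMC suspension or water) and were compared with vehicle controls. Brain (no cerebellum) and liver homogenates were incubated with 2 μM AEA plus 5 nM 3H-AEA at 37 °C, 10 min for brain and 7 min for liver. Remaining FAAH activity is % of vehicle after blank subtraction.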

[3] = molecular target: T2, FAAH; assay: In vivo FAAH inhibition after oral dosing, remaining activity in brain homogenate (BRh, central nervous tissue); parameters: species or system NMRI mice; conditions: brain homogenate, 3 mg/kg, 8 h
Procedure, shortened: as §1

For `COc1ccc(-c2ncn(C(=O)N3COCC3(C)C)n2)cc1` [Compound 188, (4,4-dimethyloxazolidin-3-yl)(3-(4-methoxyphenyl)-1H-1,2,4-triazol-1-yl)methanone], the “In Vitro FAAH activity, 100 nM” value [1] was 103.3 % of control, the “In Vivo LVh 3 mg/kg 8 h, remaining FAAH activity” value [2] was 89 % of control and the “In Vivo BRh 3 mg/kg 8 h, remaining FAAH activity” value [3] was 78.7 % of control.
With `CC1(C)COCN1C(=O)n1cnc(-c2ccc(Cl)cc2)n1` [Compound 189, (3-(4-chlorophenyl)-1H-1,2,4-triazol-1-yl)(4,4-dimethyloxazolidin-3-yl)methanone] the “In Vitro FAAH activity, 100 nM” value [1] was 98.5 % of control, the “In Vivo LVh 3 mg/kg 8 h, remaining FAAH activity” value [2] was 87.6 % of control and the “In Vivo BRh 3 mg/kg 8 h, remaining FAAH activity” value [3] was 105.9 % of control.
In the case of `CN(Cc1ccccc1)C(=O)n1cnc(-c2cccc3ccccc23)n1` [Compound 191, N-benzyl-N-methyl-3-(naphthalen-1-yl)-1H-1,2,4-triazole-1-carboxamide], the “In Vitro FAAH activity, 100 nM” value [1] was 21 % of control, the “In Vivo LVh 3 mg/kg 8 h, remaining FAAH activity” value [2] was 20.8 % of control and the “In Vivo BRh 3 mg/kg 8 h, remaining FAAH activity” value [3] was 60 % of control.
`C[C@@H](c1ccccc1)N(C)C(=O)n1nnc2ccccc21` [Compound 195, (S)—N-methyl-N-(1-phenylethyl)-1H-benzo[d][1,2,3]triazole-1-carboxamide] was tested, and the “In Vitro FAAH activity, 100 nM” value [1] was 15.7 % of control, the “In Vivo LVh 3 mg/kg 8 h, remaining FAAH activity” value [2] was 5.7 % of control and the “In Vivo BRh 3 mg/kg 8 h, remaining FAAH activity” value [3] was 9.1 % of control.
With `O=C(N1CCN(c2ccccc2)CC1)n1cnc(-c2cccc(-c3ccccc3)c2)c1` [Compound 196, (4-(biphenyl-3-yl)-1H-imidazol-1-yl)(4-phenylpiperazin-1-yl)methanone] the “In Vitro FAAH activity, 100 nM” value [1] was 2.5 % of control, the “In Vivo LVh 3 mg/kg 8 h, remaining FAAH activity” value [2] was 78.3 % of control and the “In Vivo BRh 3 mg/kg 8 h, remaining FAAH activity” value [3] was 88.1 % of control.
For `CN(C(=O)n1cnc(-c2ccc(N)cc2)c1)c1ccccc1` [Compound 199, 4-(4-aminophenyl)-N-methyl-N-phenyl-1H-imidazole-1-carboxamide], the “In Vitro FAAH activity, 100 nM” value [1] was 89 % of control, the “In Vivo LVh 3 mg/kg 8 h, remaining FAAH activity” value [2] was 19.7 % of control and the “In Vivo BRh 3 mg/kg 8 h, remaining FAAH activity” value [3] was 45.9 % of control.
With `CN(C(=O)n1cnc(-c2ccc(OCCN3CCNCC3)cc2)c1)c1ccccc1.Cl.Cl` [Compound 203, N-methyl-N-phenyl-4-(4-(2-(piperazin-1-yl)ethoxy)phenyl)-1H-imidazole-1-carboxamide dihydrochloride] the “In Vitro FAAH activity, 100 nM” value [1] was 93.5 % of control, the “In Vivo LVh 3 mg/kg 8 h, remaining FAAH activity” value [2] was 64.3 % of control and the “In Vivo BRh 3 mg/kg 8 h, remaining FAAH activity” value [3] was 101.8 % of control.
With `NC(=O)c1ccc(Oc2cccc(-c3ncn(C(=O)N4CCN(c5ccccc5)CC4)n3)c2)cc1` [Compound 208, 4-(3-(1-(4-phenylpiperazine-1-carbonyl)-1H-1,2,4-triazol-3-yl)phenoxy)benzamide] the “In Vitro FAAH activity, 100 nM” value [1] was 0.2 % of control, the “In Vivo LVh 3 mg/kg 8 h, remaining FAAH activity” value [2] was 96.7 % of control and the “In Vivo BRh 3 mg/kg 8 h, remaining FAAH activity” value [3] was 97.2 % of control.
`CC1(C)COCN1C(=O)n1cnc(-c2cccc(Oc3ccc(C(N)=O)cc3)c2)n1` [Compound 209, 4-(3-(1-(4,4-dimethyloxazolidine-3-carbonyl)-1H-1,2,4-triazol-3-yl)phenoxy)benzamide] was tested, and the “In Vitro FAAH activity, 100 nM” value [1] was 101.5 % of control, the “In Vivo LVh 3 mg/kg 8 h, remaining FAAH activity” value [2] was 70.1 % of control and the “In Vivo BRh 3 mg/kg 8 h, remaining FAAH activity” value [3] was 99.8 % of control.
With `CC1(C)COCN1C(=O)n1cnc(-c2cccs2)n1` [Compound 213, (4,4-dimethyloxazolidin-3-yl)(3-(thiophen-2-yl)-1H-1,2,4-triazol-1-yl)methanone] the “In Vitro FAAH activity, 100 nM” value [1] was 105.6 % of control, the “In Vivo LVh 3 mg/kg 8 h, remaining FAAH activity” value [2] was 6.9 % of control and the “In Vivo BRh 3 mg/kg 8 h, remaining FAAH activity” value [3] was 53.7 % of control.
`COc1ccc(-c2cn(C(=O)N3COCC3(C)C)cn2)cc1OC` [Compound 216, (4-(3,4-dimethoxyphenyl)-1H-imidazol-1-yl)(4,4-dimethyloxazolidin-3-yl)methanone] was tested, and the “In Vitro FAAH activity, 100 nM” value [1] was 108.6 % of control, the “In Vitro FAAH activity, 10 uM” value [1] was 38.3 % of control and the “In Vivo LVh 3 mg/kg 8 h, remaining FAAH activity” value [2] was 13.3 % of control. For the same compound, the “In Vivo BRh 3 mg/kg 8 h, remaining FAAH activity” value [3] was 29.3 % of control.
With `COc1ccc(-c2cn(C(=O)N(C)C3CCCCC3)cn2)cc1OC` [Compound 217, N-cyclohexyl-4-(3,4-dimethoxyphenyl)-N-methyl-1H-imidazole-1-carboxamide] the “In Vitro FAAH activity, 100 nM” value [1] was 80.5 % of control, the “In Vitro FAAH activity, 10 uM” value [1] was 0 % of control and the “In Vivo LVh 3 mg/kg 8 h, remaining FAAH activity” value [2] was 4.2 % of control. For the same compound, the “In Vivo BRh 3 mg/kg 8 h, remaining FAAH activity” value [3] was 6 % of control.
In the case of `CC1(C)COCN1C(=O)n1cnc2ccccc21` [Compound 219, (1H-benzo[d]imidazol-1-yl)(4,4-dimethyloxazolidin-3-yl)methanone], the “In Vitro FAAH activity, 100 nM” value [1] was 111.6 % of control, the “In Vitro FAAH activity, 10 uM” value [1] was 50.6 % of control and the “In Vivo LVh 3 mg/kg 8 h, remaining FAAH activity” value [2] was 89 % of control. The “In Vivo BRh 3 mg/kg 8 h, remaining FAAH activity” value [3] was 86.8 % of control.
`CC1(C)OCCN1C(=O)n1cnc(-c2ccccc2)c1` [Compound 220, (2,2-dimethyloxazolidin-3-yl)(4-phenyl-1H-imidazol-1-yl)methanone] was tested, and the “In Vitro FAAH activity, 100 nM” value [1] was 103.7 % of control, the “In Vivo LVh 3 mg/kg 8 h, remaining FAAH activity” value [2] was 20 % of control and the “In Vivo BRh 3 mg/kg 8 h, remaining FAAH activity” value [3] was 31.5 % of control.
For `C[C@@H]1CCC[C@H](C)N1C(=O)n1cnc(-c2ccccc2)c1` [Compound 221, ((2R,6S)-2,6-dimethylpiperidin-1-yl)(4-phenyl-1H-imidazol-1-yl)methanone], the “In Vitro FAAH activity, 100 nM” value [1] was 105.8 % of control, the “In Vivo LVh 3 mg/kg 8 h, remaining FAAH activity” value [2] was 44.9 % of control and the “In Vivo BRh 3 mg/kg 8 h, remaining FAAH activity” value [3] was 104.5 % of control.
`CN(C(=O)n1cnc2ccccc21)C1CCCCC1` [Compound 222, N-cyclohexyl-N-methyl-1H-benzo[d]imidazole-1-carboxamide] was tested, and the “In Vitro FAAH activity, 100 nM” value [1] was 102.9 % of control, the “In Vivo LVh 3 mg/kg 8 h, remaining FAAH activity” value [2] was 59.2 % of control and the “In Vivo BRh 3 mg/kg 8 h, remaining FAAH activity” value [3] was 111.5 % of control.
In the case of `CC1(C)COCN1C(=O)n1cnc(-c2cccnc2)c1.Cl.Cl` [Compound 226, (4,4-dimethyloxazolidin-3-yl)(4-(pyridin-3-yl)-1H-imidazol-1-yl)methanone dihydrochloride], the “In Vitro FAAH activity, 100 nM” value [1] was 76.6 % of control, the “In Vivo LVh 3 mg/kg 8 h, remaining FAAH activity” value [2] was 5.1 % of control and the “In Vivo BRh 3 mg/kg 8 h, remaining FAAH activity” value [3] was 8.4 % of control.
With `COc1cc(-c2cn(C(=O)N3COCC3(C)C)cn2)ccc1O` [Compound 228, (4,4-dimethyloxazolidin-3-yl)(4-(4-hydroxy-3-methoxyphenyl)-1H-imidazol-1-yl)methanone] the “In Vitro FAAH activity, 100 nM” value [1] was 78.1 % of control, the “In Vivo LVh 3 mg/kg 8 h, remaining FAAH activity” value [2] was 31.9 % of control and the “In Vivo BRh 3 mg/kg 8 h, remaining FAAH activity” value [3] was 56.4 % of control.
With `CC1(C)COCN1C(=O)n1cnc(-c2cccc(-c3ccccc3)c2)c1` [Compound 231, (4-(biphenyl-3-yl)-1H-imidazol-1-yl)(4,4-dimethyloxazolidin-3-yl)methanone] the “In Vitro FAAH activity, 100 nM” value [1] was 54.2 % of control, the “In Vivo LVh 3 mg/kg 8 h, remaining FAAH activity” value [2] was 3.6 % of control and the “In Vivo BRh 3 mg/kg 8 h, remaining FAAH activity” value [3] was 3.9 % of control.
For `CC1(C)COCN1C(=O)n1cnc(-c2cccc(-c3cccc(C(N)=O)c3)c2)c1` [Compound 232, 3′-(1-(4,4-dimethyloxazolidine-3-carbonyl)-1H-imidazol-4-yl)biphenyl-3-carboxamide], the “In Vitro FAAH activity, 100 nM” value [1] was 84.7 % of control, the “In Vitro FAAH activity, 10 uM” value [1] was 0 % of control and the “In Vivo LVh 3 mg/kg 8 h, remaining FAAH activity” value [2] was 6.5 % of control. For the same compound, the “In Vivo BRh 3 mg/kg 8 h, remaining FAAH activity” value [3] was 82.8 % of control.
